# Source: a melting point compilation (Tetko et al.; mined from patent text by program, amines drawn as free bases though some values may be those of a salt)
row,Compound,melting point
1,NS(=O)(=O)c1cc(C(=O)O)cc([N+](=O)[O-])c1NC1CCCCC1,185 to 186 °C
2,CNC(=S)NCc1cc(-c2ccccc2)no1,118 °C
3,CN1C(=O)CCC(C)(C)c2cc(Nc3ncc(Cl)c(Nc4ccccc4S(=O)(=O)N(C)C)n3)ccc21,198 to 200 °C
4,CS(=O)(=O)C(S(C)(=O)=O)S(=O)(=O)Oc1ccccc1,159 to 160 °C
5,Oc1ccc(-c2ccc3ccc(O)cc3c2)cc1,210 °C
6,Cc1nc(-n2ccc(OCC3CC3)cc2=O)sc1C(=O)NCc1ccccc1,218 to 220 °C
7,C=CCOc1ccc2c(c1)OCC1c3ccccc3OC21 (stereo unspecified),72 to 74 °C
8,COc1ccc2c(C)nnc(Cl)c2c1,151 to 153 °C
9,COc1cc(C(=O)O)ccc1Cc1cn(C)c2ccc(C(=O)NC[C@H](C)CC(F)(F)F)cc12,218 to 223 °C
10,CC(C)NC(=S)N1CCc2nc(N)sc2C1,179 to 180 °C
11,C#Cc1cc(C)cc(C)c1-c1c(O)c(C)nn(C)c1=O,179 to 181 °C
12,Cc1c(NC(=O)CC(C)(C)C)cc2c(c1C)OC(C)(C)C2(O)c1cccc(C(C)C)c1 (stereo unspecified),136 to 137 °C
13,O=C(NCCO)c1cccc(-c2ccc3[nH]cc(-c4ccc(Cl)cc4Cl)c3c2)c1,140 to 141 °C
14,COc1c(C2CCN(CCCCNC(=O)c3c(C)nc(-c4ccc(Cl)cc4)n3C)CC2)ccc2c1CCCC2,150 °C
15,CCOP(=O)(CNc1cc(Oc2ccc(C(F)(F)F)cc2Cl)ccc1[N+](=O)[O-])OCC,78 to 79 °C
16,COCCNC(=O)C1CCCN1S(=O)(=O)c1ccc(Cl)c(COc2cccc3ccc(C)nc23)c1Cl (stereo unspecified),107 °C
17,COc1cc(C=Cc2ccc(Cl)cc2)ccc1O,121 to 124 °C
18,COC(=O)N1CCC(c2ccccc2)C(O)C1 (stereo unspecified),139 to 140 °C
19,CCCc1c2c(c([N+](=O)[O-])c3c(=O)cc(C(=O)O)oc13)CCCC2,265 to 267 °C
20,CCOC(=O)CC(=O)c1ccc(C#N)cc1,64 °C
21,CC(Cc1ccc(O)cc1)NCC(O)c1cccc(Cl)c1 (stereo unspecified),50 to 55 °C
22,CCS(=O)(=O)Nc1cc(Cc2c[nH]cn2)ccc1F,122 to 123 °C
23,COC(=O)C(c1ccccc1)n1cncc1C=O (stereo unspecified),106 to 109 °C
24,CN(C)c1cc2nc(C(C)(C)C)sc2cc1NC(N)=S,275 to 280 °C
25,O=c1n(CCCCCl)nc2n1-c1ccccc1OC2,56 to 57 °C
26,CCCCCC(=O)NC(=O)C(c1ccccc1)c1ccccc1,87 °C

row,Compound,melting point
1,CCCCCCCCCCCCCCCCCCNC(=O)Oc1ccc([N+](=O)[O-])cc1OC(=O)NCCCCCCCCCCCCCCCCCC,117 to 121 °C
2,O=C1c2ccccc2C(=O)N1CC(=C(Br)Br)c1ccccc1,154 to 155 °C
3,CCCCOc1ncc(C(C)=O)cc1-c1nc2c(CC)n(CC3CC3)nc2c(=O)[nH]1,184 to 185 °C
4,Cc1noc(-c2ncn3c2CN(C)C(=O)c2ccccc2-3)n1,257 to 260 °C
5,Cc1ccc(Cn2c(NC3CCN(C)CC3)nc3cccnc32)o1,131 °C
6,Cc1ccccc1-n1c(-c2sc(Nc3ccc(Cl)cc3)nc2-c2ccccc2)nc2ccccc2c1=O,> 275 °C
7,Oc1nc(Cc2ccc(F)cc2)ncc1F,169 to 170 °C
8,COC1(c2cc(F)cc(F)c2)CCOCC1,100 °C
9,CCCCCCCCCCCCCCCCCCOc1ccc(C(=O)O)cc1OCCCCCCCCCCCCCCCCCC,94 to 117 °C
10,CC(CN1CCCS1(=O)=O)c1ccncc1 (stereo unspecified),90 to 92 °C
11,COc1cccc(OC)c1Cn1cnc2ccc(O)cc2c1=O,243 to 245 °C
12,CCOC(=O)C1=C(C)NC(CF)=C(C(=O)OCC)C1c1ccccc1C(F)(F)F (stereo unspecified),84 to 86 °C
13,CCOC(=O)C(C(=O)OCC)c1cccc2nnsc12,72 to 74 °C
14,Cc1ccc(-c2ncc(N(C)CCCCOCC(=O)O)nc2-c2ccc(C)cc2)cc1,161 to 162 °C
15,CN1CCN(c2cc(Cl)cc3c2c(=O)n(Cc2ccccc2Br)c(=O)n3Cc2ccccc2)CC1,91 to 93 °C
16,COc1cc2c(cc1OC)CN(CCCc1ccc(NC(=O)c3cccc4c(=O)c5cccc(C)c5[nH]c34)cc1)CC2,120 °C
17,CC(C)n1cc(C2(c3ccc(F)c(Br)c3)N=C(N)N(C)C2=O)cn1 (stereo unspecified),80 to 82 °C
18,CN(C)c1ccc(C(N)P(O)O)cc1 (stereo unspecified),223 to 224 °C
19,O=c1[nH]c2ccc(F)cc2c(=O)o1,240 °C
20,O=C(O)CSc1c(-c2cc(Cl)ccc2O)c2cc(C(F)(F)F)ccc2[nH]c1=O,235 °C
21,COc1cc2c(cc1N1CCNCC1)OCC2,108 to 109 °C
22,CC1(C)Oc2ccc(C#N)cc2C(OC2=CC(=O)CC2)C1(C)O (stereo unspecified),204 to 206 °C
23,CNC(=O)c1ccc(COCc2csc3nc(C(=O)NCc4cccc(OC)c4)[nH]c(=O)c23)cc1,190 to 191 °C
24,Oc1ccc2c(c1)CCc1c-2cc2ccc(O)cc2c1C1CCCC1,233 to 235 °C
25,CC1Cc2cccc(S(N)(=O)=O)c2S1(=O)=O (stereo unspecified),167 to 169 °C
26,C[C@H]1Cc2c(Cl)c(Cl)cc3c(=O)c(C(=O)O)cn1c23,268 to 270 °C

row,Compound,melting point
1,CCOC(=O)CCC(=O)c1ccc2c(c1)CCC2,51 to 52 °C
2,CN1CCN(C(=O)c2ccc(-c3[nH]nc4c3C(=O)c3c(NC(=O)NN5CCOCC5)cccc3-4)s2)CC1,186 to 187 °C
3,CC(C)(C)OC(=O)[C@H](NS(=O)(=O)c1ccc2c(Cl)cnc(Cl)c2c1)C(C)(C)C,140 to 142 °C
4,Cc1nc(CN2CCN(c3cccc(Br)c3)CC2)cs1,82 °C
5,O=C1CCCCC1c1ncc[nH]1 (stereo unspecified),104 to 105 °C
6,C[Si](C)(Cn1ccnc1)c1ccc(-c2ccccc2)cc1,51 to 53 °C
7,CCOC(=O)c1ccc2c(SC(=O)N(C)C)cccn2c1=O,119 to 121 °C
8,C[Si](C)(C)CC(O)(Cn1nc[nH]c1=S)c1ccc(F)cc1 (stereo unspecified),107 °C
9,O=C(NCc1ccccc1C(=O)O)c1cccc(/C=C/c2nc(C3CCC3)cs2)c1,185 to 187 °C
10,CCCCCS(=O)(=O)NC(=O)CCc1ccc(OC(C)C)cc1Oc1ncc(C(F)(F)F)cc1Cl,94 to 95 °C
11,Cn1c(=O)c(-c2c(Cl)cccc2Cl)cc2cnc(Nc3cccc(C(=O)O)c3)nc21,> 300 °C
12,COc1ccc(C(=O)[C@H]2CCCC[C@H]2C(=O)O)cc1OC1CCCC1 (relative stereo),120 to 121 °C
13,CC(=O)c1c(C)[nH]c(C(C)CCC(C)c2[nH]c(C)c(C(C)=O)c2C)c1C (stereo unspecified),263 to 268 °C
14,CC(C(=O)O)c1ccc2c(c1)C(=O)Cc1ccccc1O2 (stereo unspecified),152 to 154 °C
15,Cn1ncc2c(c1=O)SCCNC2C(=O)c1ccc([N+](=O)[O-])cc1 (stereo unspecified),230 to 232 °C
16,O=C(O)/C=C/c1cc([N+](=O)[O-])ccc1O,265 to 267 °C
17,COc1ccc(C2=NN(SC(C)C)C(=O)C2(SC(C)C)SC(C)C)cc1,52 to 54 °C
18,Cc1cc(OCC(O)CNC(C)(C)C)c2cc(C(N)=O)[nH]c2c1 (stereo unspecified),213 to 214 °C
19,CSc1cc(-c2ccccc2)ccc1C1=NC(C)(C)CO1,93 to 95 °C
20,CCC(C)NC1=NS(=O)(=O)c2ccc(Cl)cc2N1 (stereo unspecified),242 to 245 °C
21,Cc1ncc(CNC(=O)c2sc(N3CCN(CC4CC4)C3=O)nc2C)s1,165 to 167 °C
22,CCCn1c(-c2ccc(-n3ccnc3)cc2)cnc1[C@H](Cc1ccccn1)N(C=O)c1cc2cc(Cl)ccc2o1,173 to 175 °C
23,CN(CCO)S(=O)(=O)c1cc(NC(=O)c2cnn3c(C(F)(F)F)cc(-c4ccc(C(F)(F)F)cc4)nc23)c(Cl)s1,221 °C
24,COC(=O)C=Cc1cnc(C(=O)OC)cc1C(=O)OC,126 to 128 °C
25,Cn1cc(C(=O)C(Cl)Cl)c(=O)c(-c2cccc(F)c2)c1,183 to 184 °C
26,CCOc1nn(Cc2ccc(OCc3nc(-c4cccs4)oc3C)cc2)cc1CCC(=O)O,156 to 157 °C

row,Compound,melting point
1,COc1ccc(CC(=O)CCCCCBr)cc1,41 to 43 °C
2,CCCc1cccn1NS(=O)(=O)C1CCCC=C1C(=O)OCC (stereo unspecified),66 to 68 °C
3,CCOC(=O)c1c(NC)n[nH]c1C,161 to 162 °C
4,N#Cc1c(Cl)cccc1C=O,138 to 140 °C
5,COc1ccccc1C(=O)C=Cc1ccncc1,70 °C
6,COc1ccc(/C=C/c2ccc(Cl)cc2[N+](=O)[O-])c([N+](=O)[O-])c1,202 °C
7,CCOC(=O)C(C(=O)CCCC(C)C)C1c2ccccc2C(=O)N1c1ccc2ccc(Cl)nc2n1 (stereo unspecified),135 °C
8,CS(=O)(=O)Nc1ccc(C(=N)Nc2cc(Cl)cc(NC(=O)/C=C/c3ccccc3Cl)c2)cc1,158 to 160 °C
9,CCOC(=O)c1c(C)nc2cc(C)ccn12,59 to 61 °C
10,COc1ccc(CN(Cc2ccc(OC)cc2)c2nccc(-c3ccc(-c4ccc(N(c5ccccc5)c5ccccc5)cc4)cc3)n2)cc1,95 to 97 °C
11,CC(C)(C)c1ccc(S(=O)(=O)Nc2nc(Cl)ncc2Oc2ccccc2Cl)cc1,186 to 187 °C
12,COc1ccc2c(c1)c(Cc1cc(=O)n(-c3cccc(F)c3)[nH]1)c(C)n2C(=O)c1ccc(Cl)cc1,162 to 164 °C
13,CCOC(=O)CCc1cn(-c2ccc(C(F)(F)F)cn2)nc1C,50 to 51 °C
14,Cc1nc(N)c2nc(CO)n(NC3CCCCC3)c2c1C,> 250 °C
15,O=C(CCCN1CCOCC1)c1ccc2c(c1)C(=O)c1cc(C(=O)CCCN3CCOCC3)ccc1-2,174 to 176 °C
16,CCCNP(=O)(OC)N1CC(NC(=O)OCc2ccccc2)C1=O (stereo unspecified),121 to 123 °C
17,CC(OC(=O)c1ccccc1)P(=O)(O)OC(CCCCN)C(=O)N1CCCC1C(=O)O (stereo unspecified),186 to 192 °C
18,COc1cc2c(Nc3cc(OC)c(OC)c(OC)c3)c(C#N)cnc2cc1/C=C/CCO,184 to 185 °C
19,C=CS(=O)CCNC(=O)CCS(=O)(=O)C=C (stereo unspecified),93 °C
20,ClCCOc1ccc([C@H]2c3ccc(OCc4ccccc4)cc3OC[C@H]2c2ccccc2)cc1 (racemic),66 to 70.6 °C
21,CS(=O)(=O)NCc1ccc2[nH]cc(CC#N)c2c1,106 to 109 °C
22,O=[N+]([O-])c1cc([N+](=O)[O-])c(N2CCSCC2)c(C(F)(F)F)c1,120 to 121 °C
23,CC(C)=CCC/C(C)=C/CC/C(C)=C/C(N)=O,53 to 53.5 °C
